From the supplement of paper PMC10307832

Legend:
Experiment in all cases: relative viability (nuclei count vs DMSO), 5 days (fraction); higher = more cells survive
[1] = compound: Cc1ccc(Nc2nccc(N(C)c3ccc4c(C)n(C)nc4c3)n2)cc1S(N)(=O)=O [Pazopanib] + N=C(N)NC(=N)NCCc1ccccc1 [Phenformin] (partner 250 µM)
Procedure, shortened: (§1)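 Lung cancer cell lines in 1536-well plates got either a single drug or a fixed anchor-drug dose together with five library-drug doses (not always all listed) in √10 steps, by pin tool, on the day after seeding. Nuclei were counted after 5 days, and relative viability is the treated-to-vehicle ratio of nuclei counts. Values are medians of duplicate plates.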

[2] = compound: Cc1ccc(C(=O)Nc2ccc(CN3CCN(C)CC3)c(C(F)(F)F)c2)cc1C#Cc1cnc2cccnn12 [Ponatinib] + CC1(C)CCC(c2ccc(Cl)cc2)=C(CN2CCN(c3ccc(C(=O)NS(=O)(=O)c4ccc(N[C@H](CCN5CCOCC5)CSc5ccccc5)c(S(=O)(=O)C(F)(F)F)c4)cc3)CC2)C1 [Navitoclax] (partner 0.5 µM)
Procedure, shortened: as §1

[3] = compound: Cc1ccc(Nc2nccc(N(C)c3ccc4c(C)n(C)nc4c3)n2)cc1S(N)(=O)=O [Pazopanib]
Procedure, shortened: (§2)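 Following overnight incubation at 37 °C, lung cancer cell lines in 1536-well plates were pinned with five library-drug doses (not always all listed) in √10 steps on vehicle-anchored plates. The cells then spent 5 days without medium change before a combined fix, permeabilisation and Hoechst stain, 4× imaging and MetaXpress nuclear counts. Viability is the treated-to-vehicle ratio of nuclei, taken as the median across plates. Only plates with control CV below 25% and at least one doubling passed.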

[4] = compound: Cc1ccc(C(=O)Nc2ccc(CN3CCN(C)CC3)c(C(F)(F)F)c2)cc1C#Cc1cnc2cccnn12 [Ponatinib]
Procedure, shortened: as §2

Row | Cell Line | relative viability ([1]; first compound 0.01 µM) | relative viability ([1]; first compound 0.03162 µM) | relative viability ([1]; first compound 0.1 µM) | relative viability ([1]; first compound 0.3162 µM) | relative viability ([1]; first compound 1 µM) | relative viability ([2]; first compound 0.002 µM) | relative viability ([2]; first compound 0.006325 µM) | relative viability ([2]; first compound 0.06325 µM) | relative viability ([2]; first compound 0.2 µM) | relative viability ([3]; 0.01 µM) | relative viability ([3]; 0.03162 µM) | relative viability ([3]; 0.1 µM) | relative viability ([3]; 0.3162 µM) | relative viability ([3]; 1 µM) | relative viability ([4]; 0.002 µM) | relative viability ([4]; 0.006325 µM) | relative viability ([4]; 0.06325 µM) | relative viability ([4]; 0.2 µM)
1 | CAL-12T | 0.595 | 0.616 | 0.544 | 0.664 | 0.581 | 1.07 | 1.16 | 1.43 | 1.24 | 1.15 | 0.99 | 0.986 | 1.02 | 1.13 | 0.929 | 0.951 | 1.15 | 0.97
2 | SK-LU-1 | 0.505 | 0.627 | 0.537 | 0.571 | 0.575 | 0.702 | 0.792 | 0.902 | 0.453 | 0.939 | 1.09 | 1.08 | 1.05 | 1.08 | 0.943 | 1 | 1.07 | 0.928
3 | NCI-H1650 | 0.405 | 0.559 | 0.418 | 0.537 | 0.464 | 1.1 | 1.22 | 1.49 | 0.999 | 1.05 | 1.02 | 0.954 | 1.12 | 1.16 | 0.915 | 1.05 | 1.22 | 0.891
4 | BEN | – | 0.281 | 0.288 | 0.266 | 0.238 | 0.0656 | 0.0538 | 0.0585 | 0.0666 | 0.729 | 1.1 | 0.929 | 1.05 | 1.05 | 0.765 | 0.967 | 1.01 | 0.847
5 | EMC-BAC-2 | – | 0.513 | 0.498 | 0.536 | 0.537 | 1.06 | 1.07 | 1.19 | 1.11 | – | 0.977 | 0.93 | 1.03 | 1.04 | 0.821 | 0.973 | 1.04 | 0.822
6 | ABC-1 | 0.23 | 0.242 | – | 0.196 | 0.269 | – | – | – | – | 0.798 | 0.89 | – | 1.08 | 0.974 | 0.865 | 0.852 | 0.96 | 0.751
7 | NCI-H358 | 0.388 | 0.384 | 0.37 | – | 0.548 | – | – | – | – | 1.04 | 0.927 | 0.933 | 0.991 | 1.15 | 0.904 | 1.04 | 1.01 | 0.9
8 | NCI-H1299 | – | – | – | – | – | 1.05 | 1.03 | 1.1 | 1.01 | 1.02 | 1.03 | 1.03 | 0.993 | 0.95 | 0.997 | 1.02 | 1.02 | 0.931
9 | EBC-1 | – | – | – | – | – | 0.504 | 0.534 | 0.358 | 0.304 | 1.01 | 1.05 | 0.978 | 0.956 | 1.09 | 0.926 | 1.05 | 1.16 | 0.924
10 | NCI-H1648 | – | – | – | – | – | – | – | – | – | 0.582 | 0.869 | 0.842 | 0.903 | 0.837 | 0.862 | 0.836 | 0.671 | 0.799
11 | NCI-H661 | 0.275 | 0.281 | 0.255 | 0.272 | 0.316 | – | – | – | – | 0.939 | 0.958 | 1.03 | 1 | 0.986 | 0.98 | 0.942 | 0.985 | 0.99
12 | NCI-H650 | 0.42 | 0.473 | 0.438 | 0.466 | 0.444 | – | – | – | – | 0.801 | 0.982 | 0.916 | 0.948 | 0.946 | 0.791 | 0.848 | 0.858 | 0.896
13 | NCI-H1563 | 0.64 | 0.664 | 0.673 | 0.722 | 0.758 | – | – | – | – | 0.85 | 0.997 | 1.02 | 0.996 | 1.07 | 0.935 | 0.959 | 0.99 | 0.815
14 | NCI-H522 | 0.532 | 0.618 | 0.71 | 0.7 | 0.65 | – | – | – | – | 0.723 | 0.978 | 0.864 | 0.983 | 1.12 | 0.816 | 1 | 0.818 | 0.847
15 | IA-LM | – | – | – | – | – | 0.658 | 0.62 | 0.749 | 0.684 | 0.935 | 0.995 | 1.03 | 1.05 | 0.918 | 0.872 | 0.903 | 0.953 | 0.802
16 | NCI-H1703 | – | – | – | – | – | 0.856 | 0.943 | 0.278 | 0.205 | 0.744 | 0.735 | 0.562 | 0.353 | 0.331 | 0.821 | 0.83 | 0.466 | 0.333
17 | LCLC-103H | 0.247 | 0.338 | 0.344 | 0.344 | 0.342 | – | – | – | – | 0.762 | 1.03 | 0.984 | 0.948 | 1.04 | 0.925 | 1 | 1.05 | 0.957
18 | SW 900 | 0.532 | 0.628 | 0.398 | 0.593 | 0.689 | – | – | – | – | 0.796 | 0.902 | 0.762 | 1.12 | 1.2 | 0.817 | 0.783 | 0.889 | 0.794
